Experimental data as given in ChEMBL document CHEMBL2321798, “Polyamino geranic derivatives as new chemosensitizers to combat antibiotic resistant gram-negative bacteria” (Bioorg Med Chem, 2013).
≈ marks a conversion by molar mass, not a printed value. Calls of active or inactive are those of the source. No cut-off for these calls is given here. Residues, ends and D or L forms follow the SMILES beside them. *: point of attachment. βNA = c1ccc2cc(N*)ccc2c1

What was measured:
Klebsiella aerogenes [1] = experiment: Reduction of multidrug-resistant in Enterobacter aerogenes Ea289 assessed as ratio of nalidixic acid MIC to nalidixic acid MIC in presence of compound at 75 uM by micro-broth dilution method; type: functional
Salmonella typhimurium [2] = experiment: Reduction of multidrug-resistant in Salmonella enterica Typhimurium BN10055 harboring deltaacrB assessed as ratio of chloramphenicol MIC to chloramphenicol MIC in presence of compound by micro-broth dilution method; type: functional, organism-based; details: Salmonella enterica subsp. enterica serovar Typhimurium
Klebsiella aerogenes [3] = experiment: Antibacterial activity against Enterobacter aerogenes Ea294 harboring Ea289deltaacrB after 18 hrs by broth dilution method; type: functional; details: Ea294, 18 h
Klebsiella aerogenes [4] = experiment: Reduction of multidrug-resistant in Enterobacter aerogenes Ea294 harboring Ea289deltaacrB assessed as ratio of nalidixic acid MIC to nalidixic acid MIC in presence of compound by micro-broth dilution method; type: functional, organism-based
Salmonella typhimurium [5] = experiment: Antibacterial activity against Salmonella enterica Typhimurium BN10055 after 18 hrs by broth dilution method; type: functional, Salmonella enterica subsp. enterica serovar Typhimurium; details: BN10055, 18 h
Salmonella typhimurium [6] = experiment: Reduction of multidrug-resistant in Salmonella enterica Typhimurium BN10055 assessed as ratio of nalidixic acid MIC to nalidixic acid MIC in presence of compound at 75 uM by micro-broth dilution method; type: functional, Salmonella enterica subsp. enterica serovar Typhimurium
Klebsiella aerogenes [7] = experiment: Reduction of multidrug-resistant in Enterobacter aerogenes Ea289 assessed as ratio of chloramphenicol MIC to chloramphenicol MIC in presence of compound at 75 uM by micro-broth dilution method; type: functional
Klebsiella aerogenes [8] = experiment: Antibacterial activity against Enterobacter aerogenes Ea289 after 18 hrs by broth dilution method; type: functional; details: Ea289, 18 h
Klebsiella aerogenes [9] = experiment: Reduction of multidrug-resistant in Enterobacter aerogenes Ea294 harboring Ea289deltaacrB assessed as ratio of chloramphenicol MIC to chloramphenicol MIC in presence of compound by micro-broth dilution method; type: functional, organism-based
Salmonella typhimurium [10] = experiment: Reduction of multidrug-resistant in Salmonella enterica Typhimurium BN10055 assessed as ratio of chloramphenicol MIC to chloramphenicol MIC in presence of compound at 75 uM by micro-broth dilution method; type: functional, Salmonella enterica subsp. enterica serovar Typhimurium
Salmonella typhimurium [11] = experiment: Reduction of multidrug-resistant in Salmonella enterica Typhimurium BN10055 harboring deltaacrB assessed as ratio of nalidixic acid MIC to nalidixic acid MIC in presence of compound by micro-broth dilution method; type: functional, organism-based; details: Salmonella enterica subsp. enterica serovar Typhimurium
CHO = experiment: Cytotoxicity against CHO cells; type: cell-based; details: Cricetulus griseus
[12] = molecular target: T1, AcrB protein (Klebsiella aerogenes) (UniProt Q9AEG1); experiment: Inhibition of AcrB in Enterobacter aerogenes Ea289 assessed as glucose-induced 1,2' dinaphthylamine efflux after 18 hrs
T1 sequence (whole entry): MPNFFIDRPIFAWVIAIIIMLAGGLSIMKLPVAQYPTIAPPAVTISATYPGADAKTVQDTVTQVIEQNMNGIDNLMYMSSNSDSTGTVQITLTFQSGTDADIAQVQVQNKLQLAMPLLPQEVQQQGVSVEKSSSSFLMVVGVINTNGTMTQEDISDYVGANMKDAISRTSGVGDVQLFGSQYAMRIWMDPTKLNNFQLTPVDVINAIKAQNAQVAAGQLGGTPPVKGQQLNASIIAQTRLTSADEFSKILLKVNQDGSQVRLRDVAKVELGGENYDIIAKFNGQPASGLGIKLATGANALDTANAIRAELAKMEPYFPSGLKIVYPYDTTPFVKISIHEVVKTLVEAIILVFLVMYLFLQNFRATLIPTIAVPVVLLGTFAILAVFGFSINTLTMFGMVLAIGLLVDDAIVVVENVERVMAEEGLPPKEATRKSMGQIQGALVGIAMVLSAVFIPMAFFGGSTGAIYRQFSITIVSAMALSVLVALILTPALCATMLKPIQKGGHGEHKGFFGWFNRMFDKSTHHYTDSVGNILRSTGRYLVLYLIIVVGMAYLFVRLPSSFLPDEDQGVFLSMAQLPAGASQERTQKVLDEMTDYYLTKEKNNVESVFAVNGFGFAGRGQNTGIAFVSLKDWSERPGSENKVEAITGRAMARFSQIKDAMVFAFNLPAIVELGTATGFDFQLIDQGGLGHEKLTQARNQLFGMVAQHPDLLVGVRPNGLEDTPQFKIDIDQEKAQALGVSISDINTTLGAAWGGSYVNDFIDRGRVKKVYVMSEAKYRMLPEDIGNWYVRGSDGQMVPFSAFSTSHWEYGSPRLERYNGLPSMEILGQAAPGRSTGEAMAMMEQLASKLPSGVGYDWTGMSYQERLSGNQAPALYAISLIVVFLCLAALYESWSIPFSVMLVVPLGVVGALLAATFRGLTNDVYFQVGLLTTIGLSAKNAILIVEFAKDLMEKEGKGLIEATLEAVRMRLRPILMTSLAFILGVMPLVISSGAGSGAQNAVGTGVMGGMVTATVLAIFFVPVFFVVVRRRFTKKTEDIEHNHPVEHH

Salmonella typhimurium [13] = experiment: Antibacterial activity against Salmonella enterica Typhimurium BN10055 harboring deltaacrB after 18 hrs by broth dilution method; type: functional, Salmonella enterica subsp. enterica serovar Typhimurium; details: BN10055, 18 h
Salmonella typhimurium [14] = experiment: Reduction of multidrug-resistant in Salmonella enterica Typhimurium BN10055 assessed as ratio of nalidixic acid MIC to nalidixic acid MIC in presence of compound at 38 uM by micro-broth dilution method; type: functional, Salmonella enterica subsp. enterica serovar Typhimurium
Salmonella typhimurium [15] = experiment: Reduction of multidrug-resistant in Salmonella enterica Typhimurium BN10055 assessed as ratio of chloramphenicol MIC to chloramphenicol MIC in presence of compound at 38 uM by micro-broth dilution method; type: functional, Salmonella enterica subsp. enterica serovar Typhimurium
Klebsiella aerogenes [16] = experiment: Reduction of multidrug-resistant in Enterobacter aerogenes Ea289 assessed as ratio of nalidixic acid MIC to nalidixic acid MIC in presence of compound at 38 uM by micro-broth dilution method; type: functional
Klebsiella aerogenes [17] = experiment: Reduction of multidrug-resistant in Enterobacter aerogenes Ea289 assessed as ratio of chloramphenicol MIC to chloramphenicol MIC in presence of compound at 38 uM by micro-broth dilution method; type: functional

SMILES | MIC (Klebsiella aerogenes [3]) [µM] | MIC (Salmonella typhimurium [5]) [µM] | MIC (Klebsiella aerogenes [8]) [µM] | MIC (Salmonella typhimurium [13]) [µM] | other results
CC(C)=CCC/C(C)=C/C(=O)NCCCN1CCOCC1 | > 250 | > 250 | > 250 | – | Ratio (Klebsiella aerogenes [1]): 1; Activity (Salmonella typhimurium [2]): inactive; Activity (Klebsiella aerogenes [4]): inactive; Ratio (Salmonella typhimurium [6]): 1; Ratio (Klebsiella aerogenes [7]): 1; Activity (Klebsiella aerogenes [9]): inactive; Ratio (Salmonella typhimurium [10]): 1; Activity (Salmonella typhimurium [11]): inactive; IC50 (CHO): > 150 µM
CC(C)=CCC/C(C)=C/C(=O)NCCCNCCCCNCCCN | – | – | – | – | inhibition [12]: Dose-dependent effect
O=C(N[C@H](CO)[C@H](O)c1ccc([N+](=O)[O-])cc1)C(Cl)Cl [CHLORAMPHENICOL] | 200 (≈ 64.6 µg/mL) | 3200 (≈ 1030 µg/mL) | 3200 (≈ 1030 µg/mL) | 200 (≈ 64.6 µg/mL) | –
C[C@H]1c2cccc(O)c2C(=O)C2=C(O)[C@]3(O)C(=O)C(C(N)=O)=C(O)[C@@H](N(C)C)[C@@H]3[C@@H](O)[C@@H]21 [DOXYCYCLINE] | 2.25 (≈ 1 µg/mL) | 144 (≈ 64 µg/mL) | 72 (≈ 32 µg/mL) | 4.5 (≈ 2 µg/mL) | –
CC[C@H]1OC(=O)[C@H](C)[C@@H](O[C@H]2C[C@@](C)(OC)[C@@H](O)[C@H](C)O2)[C@H](C)[C@@H](O[C@@H]2O[C@H](C)C[C@H](N(C)C)[C@H]2O)[C@](C)(O)C[C@@H](C)C(=O)[C@H](C)[C@@H](O)[C@]1(C)O [ERYTHROMYCIN] | 110 (≈ 80.7 µg/mL) | 350 (≈ 257 µg/mL) | 350 (≈ 257 µg/mL) | 55 (≈ 40.4 µg/mL) | –
CCn1cc(C(=O)O)c(=O)c2ccc(C)nc21 [NALIDIXIC ACID] | 4400 (≈ 1020 µg/mL) | 17600 (≈ 4090 µg/mL) | 17600 (≈ 4090 µg/mL) | 275 (≈ 63.9 µg/mL) | –
N=C(N)NCCC[C@H](NC(=O)[C@@H](N)Cc1ccccc1)C(=O)Nc1ccc2ccccc2c1 [PABETAN] (H-Phe-Arg-βNA) | 150 (≈ 67 µg/mL) | 1220 (≈ 543 µg/mL) | 2430 (≈ 1090 µg/mL) | 150 (≈ 67 µg/mL) | Ratio (Salmonella typhimurium [14]): 64; Ratio (Salmonella typhimurium [15]): 8; Ratio (Klebsiella aerogenes [16]): 8; Ratio (Klebsiella aerogenes [17]): 16
